Like-named read-outs stand apart in the source and are kept apart here. One block for each compound: values may come before it.
Assays:
[1] = test system: mouse L-cells (mouse fibroblast cell line); experiment: Proliferation assay (MTT), mouse L-cells; assay type: cell-based; conditions: concentrations up to 10 microM, five days
Description: (§1) Chemicals A and B were further tested for their anti-proliferative effect on Jurkat cells and mouse L-cells (mouse fibroblast cell line). […] Proliferation assays were performed by seeding about 20,000 cells unactivated by PHA into a 24 well plate. These cells were contacted with chemicals and were then incubated at 37° C. for five days. The cells were contacted with 10 micrograms/ml of MTT (Sigma Chemical Co., MO) for three hours. The cells were then collected, resuspended in isopropanol, and the absorbance was read in a plate reader at a wavelength of 570 nm with a background subtraction at a reading at a wavelength of 690 nm (see, Carmichael et al., Cancer Res. 47:936 (1987)).

Jurkat cells = experiment: Proliferation assay (MTT), Jurkat cells; assay type: cell-based, human; conditions: concentrations up to 10 microM, five days
Description: as §1

[2] = test system: T-cell receptor pathway (clone J32-6D4)
Description: Thus, this clone was used to identify chemicals that inhibit this T-cell receptor pathway that is also stimulated by the PKC activator PMA.

[3] = test system: BLEC integrated RBL-1 cell clones; experiment: FACS of BLEC-1 integrated RBL-1 clones after ionomycin stimulation (CCF2/AM blue/green); assay type: cell-based, rat
Description: This library of BLEC-1 integrated clones was loaded with the fluorescent substrate of BL (CCF-2-AM) by adding 10 microM CCF-2-AM in HBSS containing […] at pH 7.1 and 1% glucose. After a 1 hour incubation at 22° C. cells were washed with HBSS and viewed upon excitation with 400 nm light using a 435 nm long pass emission filter. Under these assay conditions 10% of the cells were blue fluorescent indicating they were expressing beta-lactamase.
Fluorescent activated cell sorting of multi-clonal populations of RBL-1 gene integrated clones was used to identify clones with regulated BL gene expression. A BL non-expressing population of cells was isolated by sorting a library of BLEC-1 integrated clones generated by transfection of RBL-1 cells as described in Example 2. 180,000 clones expressing little or no BL were isolated by sorting for clones with a low blue/green ratio (R1 population), as shown in FIG. 4A. This population of clones was grown for seven days and resorted by FACS to test the population's fluorescent properties. […] It is also clear that the total population has shifted towards more green cells compared to the parent population, as shown in FIG. 4A. There are, however, cells with a high blue/green ratio showing up in the green sorted population. These may represent clones in which the BLEC has integrated into a differentially regulated gene such as a gene whose expression changes throughout the cell cycle.
The population of RBL-1 clones shown in FIG. 4B was stimulated by addition of 1 uM ionomycin for 6 hours and resorted to identify clones which had the BLEC integrated into a gene which is inducible by increasing intracellular calcium. A greater percentage of blue clones were present in all three of the blue sub-population (R4, R2, R5) in the ionomycin stimulated when compared to the unstimulated population.

[4] = 10 microM chemical, 1 microgram/ml of PHA for 18 hours

IC50 ([2]; Homo sapiens, T-cell, read-out: IC50 of the inhibition of PHA activation of beta-lactamase expression): ~0.2 µM
SMILES: O=C(O)/C=C/c1ccc2ccccc2n1 [chemical B]
anti-proliferative effect on L-cells [1]: no anti-proliferative effect
anti-proliferative effect on Jurkats (Jurkat cells): no anti-proliferative effect

SMILES: CN(C)c1ccc(C(=C2C=CC(=[N+](C)C)C=C2)c2ccc(N(C)C)cc2)cc1 [Gentian Violet]
% Inhibition of PHA activation of Clone J32-6D4 [2, 4]: 73%

SMILES: C[C@H](CCC(=O)O)C[C@H](C)C[C@H](C)C(=O)/C=C(\O)[C@H](C)C[C@H](C)C/C=C/[C@@H](C)[C@@H](O)[C@@H](C)[C@@H](O)C[C@@H]1CC[C@@](C)([C@H]2CC[C@@](C)([C@@H](C)O)O2)O1 [Ionomycin, ionomycin]
Ratio +Ion/−Ion, sort window R4 (blue) ([3]; 1 uM ionomycin vs unstimulated): 2.2
Ratio +Ion/−Ion, sort window R5 ([3]; 1 uM ionomycin vs unstimulated): 1.6
Ratio +Ion/−Ion, sort window R6 (green) ([3]; 1 uM ionomycin vs unstimulated): .9
Stimulated % of cells in sort window R4 (blue) ([3]; 1 uM ionomycin, 6 hours, R4 highest blue/green ratio): .24%
Stimulated % of cells in sort window R5 ([3]; 1 uM ionomycin, 6 hours, R5 lower blue/green ratio): 2.5%
Stimulated % of cells in sort window R6 (green) ([3]; 1 uM ionomycin, 6 hours, R6 green): 61.64%

SMILES: CCCCC1C(=O)N(c2ccccc2)N(c2ccc(O)cc2)C1=O (stereo not shown) [Oxyphenbutazone]
% Inhibition of PHA activation of Clone J32-6D4 [2, 4]: 75%

SMILES: C[C@H]1O[C@@H](O[C@H]2[C@@H](O)C[C@H](O[C@H]3[C@@H](O)C[C@H](O[C@H]4CC[C@@]5(C)[C@H](CC[C@@H]6[C@@H]5CC[C@]5(C)[C@@H](C7=CC(=O)OC7)CC[C@]65O)C4)O[C@@H]3C)O[C@@H]2C)C[C@H](O)[C@@H]1O [Digitoxin]
% Inhibition of PHA activation of Clone J32-6D4 [2, 4]: 77%

SMILES: Nc1nc2nc[nH]c2c(=S)[nH]1 [Thioguanine]
% Inhibition of PHA activation of Clone J32-6D4 [2, 4]: 50%

SMILES: C[C@H]1O[C@@H](O[C@H]2[C@@H](O)C[C@H](O[C@H]3[C@@H](O)C[C@H](O[C@H]4CC[C@@]5(C)[C@H](CC[C@@H]6[C@@H]5C[C@@H](O)[C@]5(C)[C@@H](C7=CC(=O)OC7)CC[C@]65O)C4)O[C@@H]3C)O[C@@H]2C)C[C@H](O)[C@@H]1O [Digoxin]
% Inhibition of PHA activation of Clone J32-6D4 [2]: 86%

SMILES: [O-][n+]1ccccc1SSc1cccc[n+]1[O-] [Dipyrithione]
% Inhibition of PHA activation of Clone J32-6D4 [2, 4]: 70%

SMILES: C[C@@H]1O[C@@H](O[C@H]2C[C@@H](O)[C@]3(CO)[C@H]4[C@H](O)C[C@]5(C)[C@@H](C6=CC(=O)OC6)CC[C@]5(O)[C@@H]4CC[C@]3(O)C2)[C@H](O)[C@H](O)[C@H]1O [Quabain]
% Inhibition of PHA activation of Clone J32-6D4 [2, 4]: 50%
